Target: T1, Human thrombin (Homo sapiens, UniProt P00734)
T1 construct: purchased Haematologic Technologies Inc
Assay: Inhibition of the protease activity of thrombin (chromogenic substrate S-2238)
Type: biochemical
Conditions: inhibition of the protease activity of thrombin; class symbols a/b/c
Description: Compounds described herein can be assayed, by a variety of methods known in the art and described herein, for inhibition of biological activity, e.g., protease activity, of a variety of proteins, e.g., thrombin.
The thrombin activity reported herein (e.g., Table A) was obtained as follows. Human thrombin was obtained from Haematologic Technologies Inc. The chromogenic
Thrombin was assayed in buffer containing 0.05 M Tris (pH 7.4), 0.015 M NaCl and 0.01% PEG-8000. The final concentration of enzyme used was 3 nM thrombin. […] All assays were performed in 96-well microtiter plates at room temperature (RT). […] Inhibitor IC50 values were determined by adding test compound as ten point, three-fold serial dilutions in buffer solution, as known in the art. The plate was read at 10 minutes after substrate addition. The IC50 was calculated by plotting the percent (%) inhibition against compound concentration and fitting the data to a constrained four parameter sigmoidal curve, as known in the art.

IC50	Compound
> 1000 nM	O=C(c1ccccc1Cl)n1nc(-c2ccccc2)cc1NCc1ccc(F)cc1 [Cmpd 114, 1-[(2-chlorophenyl)carbonyl]-N-[(4-fluorophenyl)methyl]-3-phenyl-1H-pyrazol-5-amine]
100 to 1000 nM	COc1ccccc1C(=O)n1nc(-c2ccccn2)cc1NCc1cccs1 [Cmpd 116, 1-[(2-methoxyphenyl)carbonyl]-3-(pyridin-2-yl)-N-(thiophen-2-ylmethyl)-1H-pyrazol-5-amine]
< 100 nM	COc1ccccc1C(=O)n1nc(-c2ccccn2)nc1NCc1ccsc1 [Cmpd 117, 1-[(2-methoxyphenyl)carbonyl]-3-(pyridin-2-yl)-N-(thiophen-3-ylmethyl)-1H-1,2,4-triazol-5-amine]
100 to 1000 nM	COc1ccccc1C(=O)n1nc(-c2ccccn2)cc1NCc1ccsc1 [Cmpd 118, 1-[(2-methoxyphenyl)carbonyl]-3-(pyridin-2-yl)-N-(thiophen-3-ylmethyl)-1H-pyrazol-5-amine]
> 1000 nM	COc1ccccc1C(=O)n1nc(-c2ccccn2)nc1NCc1cccc2ccccc12 [Cmpd 119, 1-[(2-methoxyphenyl)carbonyl]-N-(naphthalen-1-ylmethyl)-3-(pyridin-2-yl)-1H-1,2,4-triazol-5-amine]
> 1000 nM	COc1ccccc1C(=O)n1nc(-c2ccccn2)nc1NCc1ccc2ccccc2c1 [Cmpd 120, 1-[(2-methoxyphenyl)carbonyl]-N-(naphthalen-2-ylmethyl)-3-(pyridin-2-yl)-1H-1,2,4-triazol-5-amine]
< 100 nM	O=C(c1ccc(Cl)cc1)n1nc(-c2ccccn2)nc1NCc1ccc(F)cc1 [Cmpd 121, 1-[(4-chlorophenyl)carbonyl]-N-[(4-fluorophenyl)methyl]-3-(pyridin-2-yl)-1H-1,2,4-triazol-5-amine]
100 to 1000 nM	O=C(c1ccc(Cl)cc1)n1nc(-c2ccncc2)nc1NCc1ccc(F)cc1 [Cmpd 122, 1-[(4-chlorophenyl)carbonyl]-N-[(4-fluorophenyl)methyl]-3-(pyridin-4-yl)-1H-1,2,4-triazol-5-amine]
100 to 1000 nM	COc1ccc(CNc2nc(-c3ccccn3)nn2C(=O)c2ccco2)cc1 [Cmpd 123, 1-[(furan-2-yl)carbonyl]-N-[(4-methoxyphenyl)methyl]-3-(pyridin-2-yl)-1H-1,2,4-triazol-5-amine]
100 to 1000 nM	COc1ccc(CNc2nc(-c3ccncc3)nn2C(=O)c2ccco2)cc1 [Cmpd 124, 1-[(furan-2-yl)carbonyl]-N-[(4-methoxyphenyl)methyl]-3-(pyridin-4-yl)-1H-1,2,4-triazol-5-amine]
100 to 1000 nM	COc1ccc(CNc2nc(-c3ccccn3)nn2C(=O)c2ccoc2)cc1 [Cmpd 125, 1-[(furan-3-yl)carbonyl]-N-[(4-methoxyphenyl)methyl]-3-(pyridin-2-yl)-1H-1,2,4-triazol-5-amine]
100 to 1000 nM	COc1ccc(CNc2nc(-c3cccnc3)nn2C(=O)c2ccoc2)cc1 [Cmpd 126, 1-[(furan-3-yl)carbonyl]-N-[(4-methoxyphenyl)methyl]-3-(pyridin-3-yl)-1H-1,2,4-triazol-5-amine]
> 1000 nM	COc1ccc(CNc2nc(-c3ccncc3)nn2C(=O)c2ccoc2)cc1 [Cmpd 127, 1-[(furan-3-yl)carbonyl]-N-[(4-methoxyphenyl)methyl]-3-(pyridin-4-yl)-1H-1,2,4-triazol-5-amine]
> 1000 nM	CN(C)C(=O)c1cc(-c2ccccn2)nn1CCc1ccc(F)cc1 [Cmpd 128, 1-[2-(4-fluorophenyl)ethyl]-N,N-dimethyl-3-(pyridin-2-yl)-1H-pyrazole-5-carboxamide]
> 1000 nM	CN(C)C(=O)c1cc(-c2ccccn2)n(CCc2ccc(F)cc2)n1 [Cmpd 129, 1-[2-(4-fluorophenyl)ethyl]-N,N-dimethyl-5-(pyridin-2-yl)-1H-pyrazole-3-carboxamide]
> 1000 nM	CN(C(=O)c1cc(-c2ccccn2)nn1CCc1ccc(F)cc1)c1ccccc1 [Cmpd 130, 1-[2-(4-fluorophenyl)ethyl]-N-methyl-N-phenyl-3-(pyridin-2-yl)-1H-pyrazole-5-carboxamide]
> 1000 nM	CN(C(=O)c1cc(-c2ccccn2)n(CCc2ccc(F)cc2)n1)c1ccccc1 [Cmpd 131, 1-[2-(4-fluorophenyl)ethyl]-N-methyl-N-phenyl-5-(pyridin-2-yl)-1H-pyrazole-3-carboxamide]
100 to 1000 nM	CC(C)(C)C(=O)n1nc(-c2ccccc2F)cc1NCc1ccccc1 [Cmpd 133, 1-[5-(benzylamino)-3-(2-fluorophenyl)-1H-pyrazol-1-yl]-2,2-dimethylpropan-1-one]
> 1000 nM	CC(C)CC(=O)n1nc(-c2ccccc2F)cc1NCc1ccccc1 [Cmpd 134, 1-[5-(benzylamino)-3-(2-fluorophenyl)-1H-pyrazol-1-yl]-3-methylbutan-1-one]
100 to 1000 nM	CCC(=O)n1nc(-c2cccc(F)c2)nc1NCc1ccccc1 [Cmpd 135, 1-[5-(benzylamino)-3-(3-fluorophenyl)-1H-1,2,4-triazol-1-yl]propan-1-one]
< 100 nM	CC(C)(C)C(=O)n1nc(-c2ccco2)nc1NCc1ccccc1 [Cmpd 136, 1-[5-(benzylamino)-3-(furan-2-yl)-1H-1,2,4-triazol-1-yl]-2,2-dimethylpropan-1-one]

IC50	Compound
< 100 nM	CC(C)(C)C(=O)n1nc(-c2ccccn2)nc1NCc1ccccc1 [Cmpd 137, 1-[5-(benzylamino)-3-(pyridin-2-yl)-1H-1,2,4-triazol-1-yl]-2,2-dimethylpropan-1-one]
< 100 nM	CC(C)C(=O)n1nc(-c2ccccn2)nc1NCc1ccccc1 [Cmpd 138, 1-[5-(benzylamino)-3-(pyridin-2-yl)-1H-1,2,4-triazol-1-yl]-2-methylpropan-1-one]
< 100 nM	O=C(Cc1ccccc1)n1nc(-c2ccccn2)nc1NCc1ccccc1 [Cmpd 139, 1-[5-(benzylamino)-3-(pyridin-2-yl)-1H-1,2,4-triazol-1-yl]-2-phenylethan-1-one]
< 100 nM	CC(C)CC(=O)n1nc(-c2ccccn2)nc1NCc1ccccc1 [Cmpd 140, 1-[5-(benzylamino)-3-(pyridin-2-yl)-1H-1,2,4-triazol-1-yl]-3-methylbutan-1-one]
< 100 nM	CCCC(=O)n1nc(-c2ccccn2)nc1NCc1ccccc1 [Cmpd 141, 1-[5-(benzylamino)-3-(pyridin-2-yl)-1H-1,2,4-triazol-1-yl]butan-1-one]
100 to 1000 nM	CC(C)CC(=O)n1nc(-c2ccccn2)cc1NCc1ccccc1 [Cmpd 144, 1-[5-(benzylamino)-3-(pyridin-2-yl)-1H-pyrazol-1-yl]-3-methylbutan-1-one]
< 100 nM	CC(C)(C)C(=O)n1nc(-c2ccncc2)nc1NCc1ccccc1 [Cmpd 145, 1-[5-(benzylamino)-3-(pyridin-4-yl)-1H-1,2,4-triazol-1-yl]-2,2-dimethylpropan-1-one]
< 100 nM	CC(C)C(=O)n1nc(-c2ccncc2)nc1NCc1ccccc1 [Cmpd 146, 1-[5-(benzylamino)-3-(pyridin-4-yl)-1H-1,2,4-triazol-1-yl]-2-methylpropan-1-one]
< 100 nM	O=C(Cc1ccccc1)n1nc(-c2ccncc2)nc1NCc1ccccc1 [Cmpd 147, 1-[5-(benzylamino)-3-(pyridin-4-yl)-1H-1,2,4-triazol-1-yl]-2-phenylethan-1-one]
< 100 nM	CC(C)CC(=O)n1nc(-c2ccncc2)nc1NCc1ccccc1 [Cmpd 148, 1-[5-(benzylamino)-3-(pyridin-4-yl)-1H-1,2,4-triazol-1-yl]-3-methylbutan-1-one]
100 to 1000 nM	O=C(CCc1ccccc1)n1nc(-c2ccncc2)nc1NCc1ccccc1 [Cmpd 149, 1-[5-(benzylamino)-3-(pyridin-4-yl)-1H-1,2,4-triazol-1-yl]-3-phenylpropan-1-one]
< 100 nM	CCCC(=O)n1nc(-c2ccncc2)nc1NCc1ccccc1 [Cmpd 150, 1-[5-(benzylamino)-3-(pyridin-4-yl)-1H-1,2,4-triazol-1-yl]butan-1-one]
< 100 nM	CCC(=O)n1nc(-c2ccncc2)nc1NCc1ccccc1 [Cmpd 151, 1-[5-(benzylamino)-3-(pyridin-4-yl)-1H-1,2,4-triazol-1-yl]propan-1-one]
< 100 nM	CC(C)(C)C(=O)n1nc(-c2cccs2)nc1NCc1ccccc1 [Cmpd 152, 1-[5-(benzylamino)-3-(thiophen-2-yl)-1H-1,2,4-triazol-1-yl]-2,2-dimethylpropan-1-one]
> 1000 nM	CCC(=O)n1nc(-c2cccnc2)nc1SC [Cmpd 153, 1-[5-(methylsulfanyl)-3-(pyridin-3-yl)-1H-1,2,4-triazol-1-yl]propan-1-one]
> 1000 nM	CCC(=O)n1nc(-c2cccs2)nc1SC [Cmpd 154, 1-[5-(methylsulfanyl)-3-(thiophen-2-yl)-1H-1,2,4-triazol-1-yl]propan-1-one]
> 1000 nM	CCC(=O)n1nc(-c2cccnc2)nc1N [Cmpd 155, 1-[5-amino-3-(pyridin-3-yl)-1H-1,2,4-triazol-1-yl]propan-1-one]
100 to 1000 nM	COc1ccc(CNc2nc(-c3ccccn3)nn2C(=O)c2ccccc2)cc1 [Cmpd 157, 1-benzoyl-N-[(4-methoxyphenyl)methyl]-3-(pyridin-2-yl)-1H-1,2,4-triazol-5-amine]
> 1000 nM	COc1ccc(CNc2nc(-c3ccncc3)nn2C(=O)c2ccccc2)cc1 [Cmpd 158, 1-benzoyl-N-[(4-methoxyphenyl)methyl]-3-(pyridin-4-yl)-1H-1,2,4-triazol-5-amine]
< 100 nM	O=C(c1ccccc1)n1nc(-c2ccccn2)nc1NCc1ccccc1 [Cmpd 159, 1-benzoyl-N-benzyl-3-(pyridin-2-yl)-1H-1,2,4-triazol-5-amine]
< 100 nM	O=C(c1ccccc1)n1nc(-c2ccncc2)nc1NCc1ccccc1 [Cmpd 160, 1-benzoyl-N-benzyl-3-(pyridin-4-yl)-1H-1,2,4-triazol-5-amine]

Reference: US20170326125A1, “MULTISUBSTITUTED AROMATIC COMPOUNDS AS INHIBITORS OF THROMBIN” (VERSEON CORPORATION, priority 2016, published 2017)
